Patent US9316633B2, “Methods for identifying inhibitors of solute transporters” (The Regents of the University of California, priority 2006, dated 2016)

Assays:
UT-B [1] = target: T1, UT-B (Homo sapiens, UniProt Q13336); test: Stopped-flow light scattering, urea permeability of human RBCs; assay type: cell-based; details: for inhibition of urea transport, inhibitor added only to urea-containing solution (sidedness): 0.1 μM ureainh-101, 0.2 μM ureainh-302, external exposure at time of mixing; for reversibility of inhibition after washing RBCs: 10 min pre-incubation, then wash
T1 construct: the indicator cells are red blood cells that endogenously express the UT-B urea transporter; endogenous in cells; host or cells: human red blood cells (whole venous blood, single donor)
T1 sequence (Q13336 1-389): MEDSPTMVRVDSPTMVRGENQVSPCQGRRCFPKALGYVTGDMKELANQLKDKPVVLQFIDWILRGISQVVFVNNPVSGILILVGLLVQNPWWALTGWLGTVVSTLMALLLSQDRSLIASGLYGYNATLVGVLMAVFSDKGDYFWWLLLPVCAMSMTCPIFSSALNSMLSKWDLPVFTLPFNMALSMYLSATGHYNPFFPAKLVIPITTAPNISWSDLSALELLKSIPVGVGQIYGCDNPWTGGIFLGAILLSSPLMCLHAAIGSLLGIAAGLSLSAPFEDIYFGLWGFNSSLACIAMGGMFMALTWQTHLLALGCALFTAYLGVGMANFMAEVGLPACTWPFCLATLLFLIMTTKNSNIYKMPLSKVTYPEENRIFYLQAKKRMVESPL
Description: RBC urea and water permeabilities were assayed by stopped-flow light scattering using a Hi-Tech Sf-51 instrument (Wiltshire, UK). […] After an initial osmotic shrinking phase, the kinetics of increasing cell volume caused by urea influx were measured as the time-course of 90° scattered light intensity at 530 nm, with increasing cell volume resulting in reduced scattered light intensity. As a positive control, 0.7 mM phloretin was added to the RBC suspension prior to stopped-flow experiments. Measurements of water permeability were carried out similarly, with sucrose (cell-impermeant) used instead of urea to establish a 250-mM osmotic gradient. As a positive control, HgCl2 (0.3 mM) was added to the RBC suspension prior to stopped-flow measurements. Osmotic water permeability coefficients (Pf) were computed from light scattering data as described (van Hoek et al., J. Biol. Chem. 267:18267-69 (1992)).
After repeating the 96-well plate RBC lysis assay to confirm compound activity (see Example 2), bona fide urea transport inhibition was determined by stopped-flow light scattering from the kinetics of urea influx (RBC swelling) in response to an inwardly directed urea gradient. Rapid mixing of an RBC suspension with a hyperosmolar solution containing excess 250 mM urea produced rapid cell shrinking due to osmotic water efflux, followed by cell swelling as urea (and water) influx occurred.
To determine EC50 values for urea transport inhibition directly, RBC urea transport was measured by stopped-flow light scattering using a non-saturating concentration of extracellular urea (to avoid possible competition effects). EC50 for inhibition of RBC urea transport was determined independently by comparing stopped-flow light scattering curves to a model of cell shrinking-swelling.
For stopped-flow experiments, a 100-mM gradient of urea (for human RBCs) or N-methylurea (for mouse RBCs) was used to minimize competition effects (apparent urea and N-methylurea affinities at 23° C. are approximately 200 and approximately 100 mM, respectively) (Mayrand et al., J. Gen. Physiol. 81:221-37 (1983)). N-methylurea, with greater than 2-fold slower RBC permeability than urea, was used in mouse studies to better resolve overlapping water and urea transport kinetics. Dose-response data were also collected for human RBCs using a high concentration of 1 M urea to distinguish between competitive vs. non-competitive inhibitor binding.
The two coupled differential equations describing water efflux and solute influx in response to externally added urea or methylurea were numerically integrated using the forward Euler method (Δt=0.01 s) to reproduce the biphasic changes in cell volume observed experimentally. Computations that were performed using the smaller time step (Δt=0.001 s) gave similar results, confirming the adequacy of the 0.01 s time step. Water flux, Jv (in cm^3/s), across erythrocyte membranes is represented by the following equation: Jv=−Pf·S·vw·[(Ie−Ic(i))+(Ue−Uc(i))]; solute flux, Js (in mol/s), is represented by the following equation: Ps·S·(Ue−Uc(i). Permeability coefficients (Pf and Ps) are expressed in units of cm/s, cell surface area (S) in cm^2, extracellular (e) and cellular (c) concentrations of impermeant (I) and urea/methylurea (U) solute in mol/cm^3, and vw is […]. Initial conditions were Ie=Ic(0)=2.9×10^−4 mol/cm^3, Ue=10^−4 mol/cm^3, and Uc(0)=0. For each time step, a new cell volume (normalized to the initial size; V(i+1)/V(0)) and a new cell permeant concentration (U(i+1)) were calculated from V(i+1)/V(0)=V(i)/V(0)−Δt·Pf·(S/V(0))·vw·[Ie(1−V(i)/V(0))+(Ue−Uc(i))] and Uc(i+1)=Uc(i)/V(0)−Δt·Us·(S/V(0))·vw·(Ue−Uc(i)). Normalized cell volume was assumed to be inversely proportional to scattered light intensity. The product of Pf and the surface area-to-volume ratio (S/V(0)) was determined to be 3.4×10^2 s^−1 and 8.5×10^2 s^−1 for human and mouse erythrocytes, respectively, from water permeability measurements. […]

urea transporter (UT) = details: 23° C., RBC urea transport; cited from earlier work
RBCs from wild-type mice = test: Osmotic water permeability by stopped-flow light scattering, RBCs from wild-type mice; assay type: cell-based, mouse
Description: (§1) RBC urea and water permeabilities were assayed by stopped-flow light scattering using a Hi-Tech Sf-51 instrument (Wiltshire, UK). For measurement of urea permeability, dilutions of whole blood (human or mouse; see Example 1) in PBS (hematocrit: approximately 0.5%) were incubated with test compounds for 5 min and then subjected to a 250-mM inwardly directed gradient of urea. After an initial osmotic shrinking phase, the kinetics of increasing cell volume caused by urea influx were measured as the time-course of 90° scattered light intensity at 530 nm, with increasing cell volume resulting in reduced scattered light intensity. As a positive control, 0.7 mM phloretin was added to the RBC suspension prior to stopped-flow experiments. Measurements of water permeability were carried out similarly, with sucrose (cell-impermeant) used instead of urea to establish a 250-mM osmotic gradient. As a positive control, HgCl2 (0.3 mM) was added to the RBC suspension prior to stopped-flow measurements. Osmotic water permeability coefficients (Pf) were computed from light scattering data as described (van Hoek et al., J. Biol. Chem. 267:18267-69 (1992)).
This example describes chemical knock-out of UT-B by UT-B inhibitors in RBCs and the effect on UT-B-facilitated water transport. […] Osmotic water permeability was measured by stopped-flow light scattering in RBCs from wild-type and AQP1-null mice as shown in FIG. 8A. […] AQP1-null RBCs had greater than 5-fold reduced Pf compared to wild-type RBCs.

[2] = target: T2, UT-B-facilitated water transport (Mus musculus, UniProt Q8VHL0); test: Osmotic water permeability by stopped-flow light scattering, RBCs from AQP1-null mice; assay type: cell-based
T2 construct: endogenous in cells; host or cells: mouse red blood cells (AQP1-null and wild-type mice, CD1 background)
T2 sequence (Q8VHL0 1-384): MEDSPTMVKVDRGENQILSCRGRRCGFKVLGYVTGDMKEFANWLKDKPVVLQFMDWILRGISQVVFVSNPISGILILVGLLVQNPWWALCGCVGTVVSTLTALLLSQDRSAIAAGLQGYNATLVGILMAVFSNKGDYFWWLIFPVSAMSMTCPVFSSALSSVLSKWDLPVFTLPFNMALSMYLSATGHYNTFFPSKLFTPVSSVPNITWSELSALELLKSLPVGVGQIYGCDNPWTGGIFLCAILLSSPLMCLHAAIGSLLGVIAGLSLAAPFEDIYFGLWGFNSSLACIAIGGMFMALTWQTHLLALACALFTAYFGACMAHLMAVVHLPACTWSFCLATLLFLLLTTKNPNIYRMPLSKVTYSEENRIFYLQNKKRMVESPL
Description: as §1, with “Osmotic water permeability coefficients (Pf) were computed from light scattering data as described (van Hoek et al., J. Biol. Chem. 267:18267-69 (1992)).” left out
This example describes chemical knock-out of UT-B by UT-B inhibitors in RBCs and the effect on UT-B-facilitated water transport. […] Osmotic water permeability was measured by stopped-flow light scattering in RBCs from wild-type and AQP1-null mice as shown in FIG. 8A. […]

UT-B [3] = target: T1, UT-B; test: RBC lysis assay, human RBCs loaded with acetamide; assay type: cell-based; details: UT-B inhibitory potency

CC(N)=O [Acetamide, reference compound]
share of transport in RBCs that is UT-B-dependent (UT-B [1]; stopped-flow light scattering): greater than 95%

CNC(N)=O [N-methylurea]
apparent affinity (urea transporter (UT)): approximately 100 mM

NC(N)=O [urea]
apparent affinity (urea transporter (UT)): approximately 200 mM

NC(=O)CSc1oc(-c2ccccc2)nc1S(=O)(=O)c1ccc(Br)cc1 [ureainh-101, 2-(4-(4-bromophenylsulfonyl)-2-phenyloxazol-5-ylthio)acetamide]
effect on water transport (RBCs from wild-type mice): little effect
inhibition of urea transport, inhibitor added only to urea-containing solution (sidedness) (UT-B [1]): did not inhibit urea transport
reversibility of inhibition after washing RBCs (UT-B [1]): fully reversible inhibition
effect on water permeability [2]: further inhibited

Cc1ccc(Nc2nnc(-c3ccc(C(N)=O)cc3)c3ccccc23)cc1 [ureainh-302, 4-(4-(p-tolylamino)phthalazin-1-yl)benzamide]
effect on water transport (RBCs from wild-type mice): little effect
inhibition of urea transport, inhibitor added only to urea-containing solution (sidedness) (UT-B [1]): sizable effect
inhibition at 0.4 µM (UT-B [1]; 0.1 μM ureainh-101, 0.4 μM ureainh-302, read-out: transport inhibition after 10 min pre-incubation): > 95%
reversibility of inhibition after washing RBCs (UT-B [1]): fully reversible inhibition
EC50 (UT-B [3]; Table 5, phthalazinamines): 0.2 µM
effect on water permeability [2]: further inhibited

C=CCn1c(NCc2cc(OC)ccc2O)nc2ccccc21 [ureainh-419, 2-((1-allyl-1H-benzo[d]imidazol-2-ylamino)methyl)-4-methoxyphenol]
EC50 (UT-B [3]; Table 7, aminobenzimidazoles): 25 µM

COc1ccc(O)c(CNc2nc3ccccc3n2C(C)C)c1 [ureainh-420, 2-((1-isopropyl-1H-benzo[d]imidazol-2-ylamino)methyl)-4-methoxyphenol]
EC50 (UT-B [3]; Table 7, aminobenzimidazoles): 3 µM

CCn1c(NCc2c(O)ccc3ccccc23)nc2ccccc21 [ureainh-421, 1-((1-ethyl-1H-benzo[d]imidazol-2-ylamino)methyl)naphthalen-2-ol]
EC50 (UT-B [3]; Table 7, aminobenzimidazoles): 3 µM

CCn1c(NCc2cccc(OC)c2O)nc2ccccc21 [ureainh-422, 2-((1-ethyl-1H-benzo[d]imidazol-2-ylamino)methyl)-6-methoxyphenol]
EC50 (UT-B [3]; Table 7, aminobenzimidazoles): 11 µM

CCn1c(NC(C)c2cc(Cl)ccc2O)nc2ccccc21 (stereo not drawn) [ureainh-423, 4-chloro-2-(1-(1-ethyl-1H-benzo[d]imidazol-2-ylamino)ethyl)phenol]
EC50 (UT-B [3]; Table 7, aminobenzimidazoles): 5 µM
